Assay results published in paper PMC5824694, “Evaluation of agonist and antagonist radioligands for somatostatin receptor imaging of breast cancer using positron emission tomography” (EJNMMI Radiopharmacy and Chemistry, 2017).
Read-outs that look alike come from different tables or passages of the source.

Key:
[1] = biodistribution and PET/CT in ZR-75-1 tumor-bearing NOD scid gamma mice; conditions: female, mouse, in vivo, iv, total radioactivity; for tissue uptake at 1 h: NOD scid gamma (NOD.Cg-Prkdc^sci Il2rg^tm1Wjl/SzJ); for tissue to tissue ratio at 1 h: NOD scid gamma (NOD.Cg-Prkdc scid Il2rg tm1Wjl/SzJ)
From the text: (§1) All animal studies were done in compliance with the Canadian Council on Animal Care guidelines and were approved by the Animal Care Committee of University of British Columbia (Vancouver, Canada). Immunodeficient female NOD.Cg-Prkdc ^sci Il2rg ^tm1Wjl/SzJ mice (NOD scid gamma) were obtained from an in-house breeding colony at the Animal Resource Centre of the BC Cancer Agency Research Centre and also from Jackson Laboratory. To sustain the growth of the ER-positive ZR-75-1 cell model, animals were administered a 1.7 mg, 60-day slow-release estrogen pellet from Innovative Research of America (Sarasota, FL) subcutaneously in the dorsal space of the neck. 3–5 days post pellet-implant, 10 million ZR-75-1 cells were re-suspended in a mixture of 1:1 PBS and Matrigel (Corning Inc., Corning, NY) and inoculated subcutaneously on the right shoulder. Tumors were grown for 5–6 weeks, until they reached a size of 7–11 mm in diameter.
(§2) Mice were sedated using 2 mL/min of O2 with 2% isoflurane and injected intravenously (i.v.) with 1–2 MBq of ^68Ga-labeled peptide. Mice were allowed to roam freely for 60 min prior to euthanasia by 2 mL/min of O2 with 4% isoflurane followed by CO2 asphyxiation. Blood was promptly collected by cardiac puncture and weighted. Internal organs were harvested, rinsed in PBS, patted dry and weighed. Organ uptake was measured either in a WIZARD 2480 gamma counter (Perkin Elmer) or Cobra II auto-gamma counter (Packard), both calibrated with standards of known ^68Ga activity. Uptake was normalized to the injected dose and to the respective weight of the organ, and expressed as percent injected dose per gram of tissue (%ID/g).
(§3) Tumor-bearing mice were injected i.v. with 8–9 MBq of ^68Ga-labeled peptide. Static PET images were acquired 55 min post-injection for 10 min using an Inveon microPET/CT scanner (Siemens, Erlangen, Germany) as described previously (Lin et al. [2015]). A baseline CT scan was used for localization and attenuation correction. Mice were promptly euthanized after imaging, and biodistribution studies were undertaken as described above.

ZR-75-1 tumors = test: as above; conditions: mouse, in vivo, iv; for Kidneys uptake / Tumor uptake: female, NOD scid gamma (NOD.Cg-Prkdc^sci Il2rg^tm1Wjl/SzJ)
From the text: as §1, §2, §3

[2] = target: T1, sstr2 receptors on ZR-75-1 cells (Homo sapiens, UniProt P30874); test: saturation binding assay on ZR-75-1 cells; conditions: ZR-75-1 cells in vitro; 1 h at 25 °C; one-site binding model
T1 construct: we used a human breast cancer cell model with endogenous sstr2 expression (ZR-75-1 cells); host or cells: ZR-75-1 cells

sstr2 [3] = test system: sstr2; design: method as in Reubi et al. [2000]; conditions: ref Reubi et al. [2000]; cited from earlier work
NET = conditions: human, in vivo; cited from earlier work
sstr2 [4] = test system: sstr2; design: method as in Fani et al. [2012b]; conditions: autoradiography approach; ref Fani et al. [2012b]; cited from earlier work

T1 sequence (P30874 whole entry): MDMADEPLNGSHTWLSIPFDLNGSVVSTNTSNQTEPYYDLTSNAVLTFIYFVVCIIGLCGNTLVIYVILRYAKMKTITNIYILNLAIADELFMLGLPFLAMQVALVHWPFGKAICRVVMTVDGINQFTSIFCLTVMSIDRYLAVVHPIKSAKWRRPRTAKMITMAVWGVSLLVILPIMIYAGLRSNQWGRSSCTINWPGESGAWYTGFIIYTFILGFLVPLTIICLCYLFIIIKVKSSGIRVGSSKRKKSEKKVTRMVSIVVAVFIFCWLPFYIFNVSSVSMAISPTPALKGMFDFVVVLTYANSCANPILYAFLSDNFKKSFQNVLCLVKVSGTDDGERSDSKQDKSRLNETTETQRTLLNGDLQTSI

Row | Compound | tissue uptake at 1 h ([1]; Blood uptake) [%ID/g] | tissue uptake at 1 h ([1]; Bone uptake) [%ID/g] | tissue uptake at 1 h ([1]; Fat uptake) [%ID/g] | tissue uptake at 1 h ([1]; Heart uptake) [%ID/g] | tissue uptake at 1 h ([1]; Intestines uptake) [%ID/g] | tissue uptake at 1 h ([1]; Kidneys uptake) [%ID/g] | tissue uptake at 1 h ([1]; Liver uptake) [%ID/g] | tissue uptake at 1 h ([1]; Lungs uptake) [%ID/g] | tissue uptake at 1 h ([1]; Ovaries uptake) [%ID/g] | tissue uptake at 1 h ([1]; Pancreas uptake) [%ID/g] | tissue uptake at 1 h ([1]; Spleen uptake) [%ID/g] | tissue uptake at 1 h ([1]; Stomach uptake) [%ID/g] | tissue uptake at 1 h ([1]; Uterus uptake) [%ID/g] | Kidneys uptake (ZR-75-1 tumors; 1 h) [%ID/g] | also measured
1 | C[C@@H](O)[C@H](NC(=O)[C@@H]1CSSC[C@H](NC(=O)[C@@H](Cc2ccccc2)NC(=O)CN2CCN(CC(=O)O)CCN(CC(=O)O)CCN(CC(=O)O)CC2)C(=O)N[C@@H](Cc2ccc(O)cc2)C(=O)N[C@H](Cc2c[nH]c3ccccc23)C(=O)N[C@@H](CCCCN)C(=O)N[C@@H]([C@@H](C)O)C(=O)N1)C(=O)O [^68Ga-DOTATATE, ^68Ga-DOTA-Tyr^3-octreotate, metal not drawn] | 0.35 | 0.25 | 0.28 | 0.67 | 7.35 | 8.5 ± 1.7 | 1.95 | 28.7 | 0.89 | 51.6 | 0.84 | 8.29 | 0.84 | 8.45 | Brain uptake (ZR-75-1 tumors; 1 h): 0.03 %ID/g
2 | C[C@@H](O)[C@@H]1NC(=O)[C@H](CCCCN)NC(=O)[C@@H](Cc2ccc(NC(N)=O)cc2)NC(=O)[C@H](Cc2ccc(NC(=O)[C@@H]3CC(=O)NC(=O)N3)cc2)NC(=O)[C@H](NC(=O)[C@H](Cc2ccc(Cl)cc2)NC(=O)CCC(C(=O)O)N2CCN(CC(=O)O)CCN(CC(=O)O)CC2)CSSC[C@@H](C(=O)N[C@H](Cc2ccc(O)cc2)C(N)=O)NC1=O (stereo partly drawn) [^67/natGa-NODAGA-JR11, metal not drawn] |  |  |  |  |  |  |  |  |  |  |  |  |  |  | Bmax (number of binding sites) [2]: 4.39 ± 0.32 × 10^4 sites/cell
4 | C[C@@H](O)[C@@H]1NC(=O)[C@H](CCCCN)NC(=O)[C@@H](Cc2ccc(NC(N)=O)cc2)NC(=O)[C@H](Cc2ccc(NC(=O)[C@@H]3CC(=O)NC(=O)N3)cc2)NC(=O)[C@H](NC(=O)[C@H](Cc2ccc(Cl)cc2)NC(=O)CCC(C(=O)O)N2CCN(CC(=O)O)CCN(CC(=O)O)CC2)CSSC[C@@H](C(=O)N[C@H](Cc2ccc(O)cc2)C(N)=O)NC1=O (stereo partly drawn) [^natGa-NODAGA-JR11, metal not drawn] |  |  |  |  |  |  |  |  |  |  |  |  |  |  | IC50 (sstr2 [4]): 1.2 ± 0.2 nM

Continued, in another order:

Row | tissue uptake at 1 h ([1]; Blood uptake) [%ID/g] | tissue uptake at 1 h ([1]; Bone uptake) [%ID/g] | tissue uptake at 1 h ([1]; Fat uptake) [%ID/g] | tissue uptake at 1 h ([1]; Heart uptake) [%ID/g] | tissue uptake at 1 h ([1]; Intestines uptake) [%ID/g] | tissue uptake at 1 h ([1]; Kidneys uptake) [%ID/g] | tissue uptake at 1 h ([1]; Liver uptake) [%ID/g] | tissue uptake at 1 h ([1]; Lungs uptake) [%ID/g] | tissue uptake at 1 h ([1]; Ovaries uptake) [%ID/g] | tissue uptake at 1 h ([1]; Pancreas uptake) [%ID/g] | tissue uptake at 1 h ([1]; Spleen uptake) [%ID/g] | tissue uptake at 1 h ([1]; Stomach uptake) [%ID/g] | tissue uptake at 1 h ([1]; Uterus uptake) [%ID/g] | Kidneys uptake (ZR-75-1 tumors; 1 h) [%ID/g] | Compound | also measured
6 | 0.45 | 0.2 | 0.18 | 0.3 | 2.39 | 9.3 ± 1.7 | 0.71 | 22.9 | 0.51 | 11 | 0.46 | 2.75 | 0.54 | 9.27 | C[C@@H](O)[C@@H]1NC(=O)[C@H](CCCCN)NC(=O)[C@@H](Cc2c[nH]c3ccccc23)NC(=O)[C@H](Cc2ccc(O)cc2)NC(=O)[C@@H](NC(=O)[C@@H](Cc2ccccc2)NC(=O)CN2CCN(CC(=O)O)CCN(CC(=O)O)CCN(CC(=O)O)CC2)CSSC[C@@H](C(=O)N[C@H](CO)[C@@H](C)O)NC1=O [^68Ga-DOTATOC, ^68Ga-DOTA-Tyr^3-octreotide, metal not drawn] | tissue uptake at 1 h ([1]; Adrenals uptake): 9.52 %ID/g; tissue uptake at 1 h ([1]; Brain uptake): 0.03 %ID/g; tissue uptake at 1 h ([1]; Muscle uptake): 0.11 %ID/g; tissue uptake at 1 h ([1]; Tumor uptake): 18.4 ± 2.9 %ID/g; Tumor uptake (ZR-75-1 tumors; 1 h): 18.44 %ID/g
7 | 0.8 | 0.26 | 0.23 | 0.46 | 0.9 | 14.1 ± 1.7 | 0.99 | 4.72 | 0.67 | 9.29 | 0.39 | 1.36 | 0.86 | 14.12 | C[C@@H](O)[C@@H]1NC(=O)[C@H](CCCCN)NC(=O)[C@@H](Cc2ccc(NC(N)=O)cc2)NC(=O)[C@H](Cc2ccc(NC(=O)[C@@H]3CC(=O)NC(=O)N3)cc2)NC(=O)[C@H](NC(=O)[C@H](Cc2ccc(Cl)cc2)NC(=O)CCC(C(=O)O)N2CCN(CC(=O)O)CCN(CC(=O)O)CC2)CSSC[C@@H](C(=O)N[C@H](Cc2ccc(O)cc2)C(N)=O)NC1=O (stereo partly drawn) [^68Ga-NODAGA-JR11, metal not drawn] | higher SUVmax uptake compared to ^68Ga-DOTATOC (NET): ~ 15%; tissue to tissue ratio at 1 h ([1]; Tumor to Background Ratio: Blood (tumor-to-blood)): 15.6; tissue to tissue ratio at 1 h ([1]; Tumor to Background Ratio: Kidneys): 0.87; tissue to tissue ratio at 1 h ([1]; Tumor to Background Ratio: Muscle (tumor-to-muscle)): 45.1; tissue uptake at 1 h ([1]; Adrenals uptake): 2 %ID/g; tissue uptake at 1 h ([1]; Brain uptake): 0.05 %ID/g; tissue uptake at 1 h ([1]; Muscle uptake): 0.28 %ID/g; tissue uptake at 1 h ([1]; Tumor uptake): 12.2 ± 0.8 %ID/g; Tumor uptake (ZR-75-1 tumors; 1 h): 12.21 %ID/g; Tumor to Background Ratio: Blood (tumor-to-blood) (ZR-75-1 tumors): 15.6 ± 2.2; Tumor to Background Ratio: Muscle (tumor-to-muscle) (ZR-75-1 tumors): 45.2 ± 11.6
